Measurements published in the NIST ThermoML archive (doi:10.1021/acs.jced.8b00692).

Experiment: xn = mol fraction of the nth substance listed
Details: 102 kPa, Liquid; for viscosity: Concentric cylinders viscometry; for speed of sound: Frequency=3 MHz, Single path-length method; for mass density: Vibrating tube method

CCCCCC1CCCCC1 [pentylcyclohexane] + CCCCCCCCCCCCCCCC
Details | mass density [kg/m3] | speed of sound [m/s] | viscosity [mPa·s]
293.15 K, x1 = 0.2004 | 777.53 | 1354.6 | 3.1
293.15 K, x1 = 0.4 | 782.39 | 1351.9 | 2.74
293.15 K, x1 = 0.4999 | 785.18 | 1350.6 | 2.56
293.15 K, x1 = 0.5999 | 788.23 | 1349.4 | 2.38
293.15 K, x1 = 0.8006 | 795.35 | 1347.2 | 2.03
293.15 K, x1 = 1 | 804.11 | 1345.9 | 1.7
303.15 K, x1 = 0.2004 | 770.57 | 1317.2 | 2.49
303.15 K, x1 = 0.4 | 775.39 | 1314.4 | 2.22
303.15 K, x1 = 0.4999 | 778.15 | 1313 | 2.08
303.15 K, x1 = 0.5999 | 781.16 | 1311.6 | 1.95
303.15 K, x1 = 0.8006 | 788.18 | 1309 | 1.68
303.15 K, x1 = 1 | 796.8 | 1306.4 | 1.42
313.15 K, x1 = 0.2004 | 763.62 | 1280.5 | 2.04
313.15 K, x1 = 0.4 | 768.39 | 1277.6 | 1.83
313.15 K, x1 = 0.4999 | 771.11 | 1276 | 1.73
313.15 K, x1 = 0.5999 | 774.09 | 1274.5 | 1.61
313.15 K, x1 = 0.8006 | 781 | 1271.3 | 1.41
313.15 K, x1 = 1 | 789.47 | 1267.8 | 1.21
323.15 K, x1 = 0.2004 | 756.66 | 1244.5 | 1.7
323.15 K, x1 = 0.4 | 761.38 | 1241.4 | 1.54
323.15 K, x1 = 0.4999 | 764.07 | 1239.7 | 1.46
323.15 K, x1 = 0.5999 | 766.99 | 1237.9 | 1.37
323.15 K, x1 = 0.8006 | 773.8 | 1234.3 | 1.21
323.15 K, x1 = 1 | 782.12 | 1230.1 | 1.04
333.15 K, x1 = 0.2004 | 749.7 | 1209.3 | 1.44
333.15 K, x1 = 0.4 | 754.35 | 1206 | 1.31
333.15 K, x1 = 0.4999 | 757 | 1204.2 | 1.24
333.15 K, x1 = 0.5999 | 759.88 | 1202.3 | 1.18
333.15 K, x1 = 0.8006 | 766.57 | 1198 | 1.03
333.15 K, x1 = 1 | 774.74 | 1193.4 | 0.895
343.15 K, x1 = 0.2004 | 742.8 | – | 1.24
343.15 K, x1 = 0.4 | 747.4 | – | 1.14
343.15 K, x1 = 0.4999 | 749.9 | – | 1.08
343.15 K, x1 = 0.5999 | 752.9 | – | 1.03
343.15 K, x1 = 0.8006 | 759.4 | – | 0.916
343.15 K, x1 = 1 | 767.3 | – | 0.799
353.15 K, x1 = 0.2004 | 735.8 | – | 1.07
353.15 K, x1 = 0.4 | 740.3 | – | 0.985
353.15 K, x1 = 0.4999 | 742.8 | – | 0.937
353.15 K, x1 = 0.5999 | 745.7 | – | 0.903
353.15 K, x1 = 0.8006 | 752.2 | – | 0.809
353.15 K, x1 = 1 | 759.9 | – | 0.709
363.15 K, x1 = 0.2004 | 728.7 | – | 0.955
363.15 K, x1 = 0.4 | 733.2 | – | 0.884
363.15 K, x1 = 0.4999 | 735.6 | – | 0.843
363.15 K, x1 = 0.5999 | 738.5 | – | 0.805
363.15 K, x1 = 0.8006 | 744.8 | – | 0.724
363.15 K, x1 = 1 | 752.4 | – | 0.637

CCCCCCCCC1CCCCC1 [octylcyclohexane] + CCCCCCCCCCCCCCCC
Details | mass density [kg/m3] | speed of sound [m/s] | viscosity [mPa·s]
293.15 K, x1 = 0.2001 | 780.29 | 1361.6 | 3.46
293.15 K, x1 = 0.3999 | 787.74 | 1366.8 | 3.46
293.15 K, x1 = 0.5002 | 791.67 | 1369.7 | 3.46
293.15 K, x1 = 0.6009 | 795.83 | 1372.6 | 3.44
293.15 K, x1 = 0.8006 | 804.62 | 1378.6 | 3.46
293.15 K, x1 = 1 | 814.14 | 1387 | 3.52
303.15 K, x1 = 0.2001 | 773.36 | 1324.4 | 2.75
303.15 K, x1 = 0.3999 | 780.82 | 1329.6 | 2.74
303.15 K, x1 = 0.5002 | 784.77 | 1332.1 | 2.75
303.15 K, x1 = 0.6009 | 788.93 | 1335 | 2.74
303.15 K, x1 = 0.8006 | 797.71 | 1341.3 | 2.76
303.15 K, x1 = 1 | 807.22 | 1349.1 | 2.79
313.15 K, x1 = 0.2001 | 766.44 | 1287.9 | 2.24
313.15 K, x1 = 0.3999 | 773.91 | 1293 | 2.23
313.15 K, x1 = 0.5002 | 777.87 | 1295.4 | 2.24
313.15 K, x1 = 0.6009 | 782.03 | 1298.3 | 2.23
313.15 K, x1 = 0.8006 | 790.79 | 1304.6 | 2.24
313.15 K, x1 = 1 | 800.29 | 1312.1 | 2.27
323.15 K, x1 = 0.2001 | 759.53 | 1252 | 1.85
323.15 K, x1 = 0.3999 | 767 | 1257.2 | 1.84
323.15 K, x1 = 0.5002 | 770.97 | 1259.5 | 1.85
323.15 K, x1 = 0.6009 | 775.12 | 1262.4 | 1.85
323.15 K, x1 = 0.8006 | 783.86 | 1268.6 | 1.85
323.15 K, x1 = 1 | 793.36 | 1275.9 | 1.88
333.15 K, x1 = 0.2001 | 752.62 | 1217.1 | 1.56
333.15 K, x1 = 0.3999 | 760.08 | 1222.1 | 1.55
333.15 K, x1 = 0.5002 | 764.05 | 1224.6 | 1.56
333.15 K, x1 = 0.6009 | 768.2 | 1227.3 | 1.56
333.15 K, x1 = 0.8006 | 776.93 | 1233.7 | 1.56
333.15 K, x1 = 1 | 786.42 | 1240.5 | 1.58
343.15 K, x1 = 0.2001 | 745.7 | – | 1.34
343.15 K, x1 = 0.3999 | 753.2 | – | 1.33
343.15 K, x1 = 0.5002 | 757.2 | – | 1.35
343.15 K, x1 = 0.6009 | 761.3 | – | 1.33
343.15 K, x1 = 0.8006 | 770 | – | 1.34
343.15 K, x1 = 1 | 779.5 | – | 1.36
353.15 K, x1 = 0.2001 | 738.8 | – | 1.15
353.15 K, x1 = 0.3999 | 746.3 | – | 1.15
353.15 K, x1 = 0.5002 | 750.2 | – | 1.15
353.15 K, x1 = 0.6009 | 754.3 | – | 1.15
353.15 K, x1 = 0.8006 | 763.1 | – | 1.16
353.15 K, x1 = 1 | 772.5 | – | 1.16
363.15 K, x1 = 0.2001 | 731.8 | – | 1.02
363.15 K, x1 = 0.3999 | 739.3 | – | 1
363.15 K, x1 = 0.5002 | 743.3 | – | 1.03
363.15 K, x1 = 0.6009 | 747.4 | – | 1.01
363.15 K, x1 = 0.8006 | 756.1 | – | 1.01
363.15 K, x1 = 1 | 765.5 | – | 1.04
373.15 K, x1 = 0.2001 | 724.8 | – | 0.887
373.15 K, x1 = 0.3999 | 732.3 | – | 0.889
373.15 K, x1 = 0.5002 | 736.3 | – | 0.89
373.15 K, x1 = 0.6009 | 740.4 | – | 0.895
373.15 K, x1 = 0.8006 | 749.1 | – | 0.897
373.15 K, x1 = 1 | 758.5 | – | 0.899
